According to ChEMBL document CHEMBL4118122, “Identification and biological evaluation of thiazole-based inverse agonists of RORγt” (Bioorg Med Chem Lett, 2018):
pEC50, pIC50: −log10 of the molar value.

What was measured:
[1] = biological target: T1, Sodium-dependent noradrenaline transporter (Homo sapiens, UniProt P23975); test: Displacement of [3H]nisoxetine from recombinant human norepinephrine transporter at 1 uM after 120 mins by scintillation counting analysis relative to control
[2] = biological target: T2, Nuclear receptor ROR-gamma (Homo sapiens, UniProt P51449); test: Inverse agonist activity at RORgammat in human whole blood assessed as reduction in IL17A production
T2 sequence (P51449 whole entry): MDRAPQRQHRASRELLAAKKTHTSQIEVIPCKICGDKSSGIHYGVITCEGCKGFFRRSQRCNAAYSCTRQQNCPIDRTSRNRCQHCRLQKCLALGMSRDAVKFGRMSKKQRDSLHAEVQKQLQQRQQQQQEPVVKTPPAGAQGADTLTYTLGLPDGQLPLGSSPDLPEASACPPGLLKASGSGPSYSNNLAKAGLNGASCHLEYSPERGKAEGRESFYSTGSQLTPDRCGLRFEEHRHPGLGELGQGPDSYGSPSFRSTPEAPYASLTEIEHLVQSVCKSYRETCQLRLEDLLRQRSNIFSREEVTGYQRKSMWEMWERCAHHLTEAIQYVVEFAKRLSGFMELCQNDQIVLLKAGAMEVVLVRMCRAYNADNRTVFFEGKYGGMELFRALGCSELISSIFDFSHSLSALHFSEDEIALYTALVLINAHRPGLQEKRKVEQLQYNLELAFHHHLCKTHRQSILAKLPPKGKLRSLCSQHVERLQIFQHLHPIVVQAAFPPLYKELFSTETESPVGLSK

[3] = biological target: Sodium-dependent serotonin transporter (Homo sapiens, UniProt P31645); test: Displacement of [3H]-imipramine from recombinant human 5-HT transporter at 10 uM after 60 mins by scintillation counting relative to control
[4] = biological target: C-X-C chemokine receptor type 2 (Homo sapiens, UniProt P25025); test: Displacement of [125I]IL-8 from human recombinant CXCR2 receptor after 60 mins by scintillation counting analysis
C-X-C chemokine receptor type 2, sequence (P25025 whole entry): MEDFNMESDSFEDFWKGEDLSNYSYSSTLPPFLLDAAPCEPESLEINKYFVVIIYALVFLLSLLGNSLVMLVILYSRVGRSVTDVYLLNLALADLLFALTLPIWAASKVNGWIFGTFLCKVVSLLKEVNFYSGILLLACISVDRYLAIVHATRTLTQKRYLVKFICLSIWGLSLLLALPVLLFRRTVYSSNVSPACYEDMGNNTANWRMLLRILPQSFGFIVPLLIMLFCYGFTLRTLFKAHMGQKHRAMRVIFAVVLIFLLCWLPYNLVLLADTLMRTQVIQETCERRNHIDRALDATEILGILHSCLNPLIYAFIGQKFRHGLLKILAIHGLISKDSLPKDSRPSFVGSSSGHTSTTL

[5] = biological target: Adrenergic receptor alpha-1 (Rattus norvegicus) (UniProt P15823+P23944+P43140); test: Displacement of [3H]-prazosin from rat alpha1 adrenoceptor at 1 uM after 60 mins by scintillation counting analysis relative to control; type: protein assay
Adenosine receptor A1 = Adenosine receptor A1 (Homo sapiens, UniProt P30542); test: Displacement of [3H]-DPCPX from human recombinant adenosine A1 receptor after 60 mins by scintillation counting analysis
Vasopressin V1a receptor = Vasopressin V1a receptor (Homo sapiens, UniProt P37288); test: Displacement of [3H]AVP from human recombinant V1a receptor at 10 uM after 60 mins by scintillation counting analysis relative to control
[6] = biological target: Sodium-dependent dopamine transporter (Homo sapiens) (UniProt Q01959); test: Displacement of [3H][…] from recombinant human Dopamine transporter at 10 uM after 120 mins by scintillation counting analysis relative to control
Sodium-dependent dopamine transporter (Homo sapiens), sequence (Q01959 whole entry): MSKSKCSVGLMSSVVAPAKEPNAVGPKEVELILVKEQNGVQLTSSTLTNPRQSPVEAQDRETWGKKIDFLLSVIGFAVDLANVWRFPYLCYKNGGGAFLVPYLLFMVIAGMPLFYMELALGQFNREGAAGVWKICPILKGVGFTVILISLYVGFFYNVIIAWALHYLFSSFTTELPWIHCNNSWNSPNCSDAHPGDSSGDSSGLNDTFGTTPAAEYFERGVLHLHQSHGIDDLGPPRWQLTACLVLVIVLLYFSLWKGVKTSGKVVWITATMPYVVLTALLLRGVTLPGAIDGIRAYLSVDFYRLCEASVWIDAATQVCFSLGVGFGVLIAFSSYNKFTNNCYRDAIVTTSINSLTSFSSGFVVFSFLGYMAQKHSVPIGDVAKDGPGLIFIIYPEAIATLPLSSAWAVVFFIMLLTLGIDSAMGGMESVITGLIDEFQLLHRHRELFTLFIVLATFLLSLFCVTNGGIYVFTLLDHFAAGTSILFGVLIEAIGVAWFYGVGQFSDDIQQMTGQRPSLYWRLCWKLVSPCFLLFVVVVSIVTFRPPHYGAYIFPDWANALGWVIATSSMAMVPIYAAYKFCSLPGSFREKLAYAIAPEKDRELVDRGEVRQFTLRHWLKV

[7] = biological target: Glycogen synthase kinase-3 alpha (Homo sapiens) (UniProt P49840); test: Inhibition of GSK3alpha (unknown origin) at 10 uM in presence of ATP relative to control
[8] = biological target: T3, 5-hydroxytryptamine receptor 7 (Homo sapiens, UniProt P34969); test: Displacement of [3H]LSD from human recombinant 5-HT7 receptor at 10 uM after 120 mins by scintillation counting analysis relative to control
T3 sequence (P34969 whole entry): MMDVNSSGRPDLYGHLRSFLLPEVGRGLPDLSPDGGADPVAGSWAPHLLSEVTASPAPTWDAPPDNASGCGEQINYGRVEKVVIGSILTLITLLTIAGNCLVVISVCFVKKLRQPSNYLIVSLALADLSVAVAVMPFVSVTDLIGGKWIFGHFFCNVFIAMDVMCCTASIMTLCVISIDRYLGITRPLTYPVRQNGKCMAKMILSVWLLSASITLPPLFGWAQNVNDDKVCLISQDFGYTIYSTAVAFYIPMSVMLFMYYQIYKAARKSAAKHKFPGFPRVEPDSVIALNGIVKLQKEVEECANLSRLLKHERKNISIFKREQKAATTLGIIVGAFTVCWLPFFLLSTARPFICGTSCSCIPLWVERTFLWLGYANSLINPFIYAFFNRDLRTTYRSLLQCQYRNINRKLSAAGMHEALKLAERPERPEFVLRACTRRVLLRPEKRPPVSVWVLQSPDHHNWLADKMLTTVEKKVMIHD

Homo sapiens = organism: Homo sapiens; test: Binding affinity to GABA-gated chloride channel (unknown origin) at 10 uM by antagonist radioligand binding assay relative to control
[9] = Displacement of [3H]D 888 from rat brain L-type calcium channel verapamil binding site after 120 mins by scintillation counting analysis
[10] = biological target: 5-hydroxytryptamine receptor 1A (Homo sapiens) (UniProt P08908); test: Displacement of [3H]8-OH-DPAT from recombinant human 5-HT1A receptor at 1 uM after 60 mins by scintillation counting analysis relative to control
5-hydroxytryptamine receptor 1A (Homo sapiens), sequence (P08908 whole entry): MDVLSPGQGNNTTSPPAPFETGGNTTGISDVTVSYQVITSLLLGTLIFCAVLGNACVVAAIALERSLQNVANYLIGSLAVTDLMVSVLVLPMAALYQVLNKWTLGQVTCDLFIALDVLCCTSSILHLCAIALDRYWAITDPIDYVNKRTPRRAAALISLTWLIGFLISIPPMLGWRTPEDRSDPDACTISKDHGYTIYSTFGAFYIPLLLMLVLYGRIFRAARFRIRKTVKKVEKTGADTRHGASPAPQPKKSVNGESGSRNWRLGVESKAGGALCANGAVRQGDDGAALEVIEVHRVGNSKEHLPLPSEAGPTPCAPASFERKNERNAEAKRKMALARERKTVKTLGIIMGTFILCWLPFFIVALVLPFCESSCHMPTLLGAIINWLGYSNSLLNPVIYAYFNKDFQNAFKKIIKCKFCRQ

D(2) dopamine receptor [11] = biological target: T4, D(2) dopamine receptor (Homo sapiens, UniProt P14416); test: Displacement of [3H]7-OH-DPAT from human recombinant dopamine D2S receptor at 10 uM after 60 mins by scintillation counting analysis relative to control
T4 sequence (P14416 whole entry): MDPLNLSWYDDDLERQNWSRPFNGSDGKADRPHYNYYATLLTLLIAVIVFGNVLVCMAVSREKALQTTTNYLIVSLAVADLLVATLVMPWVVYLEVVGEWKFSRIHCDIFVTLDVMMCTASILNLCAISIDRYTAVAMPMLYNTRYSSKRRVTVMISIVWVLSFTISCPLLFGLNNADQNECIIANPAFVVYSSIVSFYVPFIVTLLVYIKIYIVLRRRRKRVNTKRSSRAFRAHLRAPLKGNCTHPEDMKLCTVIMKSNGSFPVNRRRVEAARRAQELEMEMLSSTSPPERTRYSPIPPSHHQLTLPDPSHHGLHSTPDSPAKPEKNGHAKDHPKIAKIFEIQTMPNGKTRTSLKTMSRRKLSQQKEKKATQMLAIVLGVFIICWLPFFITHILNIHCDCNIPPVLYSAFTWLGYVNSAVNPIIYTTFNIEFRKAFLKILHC

[12] = biological target: Adenosine receptor A3 (Homo sapiens) (UniProt P0DMS8); test: Displacement of [125I]AB-MECA from human recombinant adenosine A3 receptor at 1 uM after 120 mins by scintillation counting analysis relative to control
Rattus norvegicus = organism: Rattus norvegicus; test: Displacement of [125I]alpha-dendrotoxin from rat brain voltage-gated K channel at 1 uM after 60 mins by scintillation counting analysis relative to control
[13] = biological target: T2, Nuclear receptor ROR-gamma; test: Inverse agonist activity at human GAL4 DBD-fused RORgammat LBD (237 to 497 residues) expressed in HEK293T cells assessed as reduction in ROR mediated transcriptional activity after 24 hrs by dual glo luciferase reporter gene assay; type: cell-based
[14] = biological target: T1, Sodium-dependent noradrenaline transporter; test: Displacement of [3H]nisoxetine from recombinant human norepinephrine transporter after 120 mins by scintillation counting analysis
[15] = biological target: Beta-1 adrenergic receptor (Homo sapiens, UniProt P08588); test: Displacement of [3H](-)CGP 12177 from human beta1 adrenoceptor at 10 uM after 60 mins by scintillation counting analysis relative to control
[16] = biological target: T3, 5-hydroxytryptamine receptor 7; test: Displacement of [3H]LSD from human recombinant 5-HT7 receptor at 1 uM after 120 mins by scintillation counting analysis relative to control
[17] = biological target: 5-hydroxytryptamine receptor 1B (Rattus norvegicus, UniProt P28564); test: Displacement of [125I]-CYP from rat brain 5-HT1B receptor after 120 mins by scintillation counting analysis
5-hydroxytryptamine receptor 1B, sequence (P28564 whole entry): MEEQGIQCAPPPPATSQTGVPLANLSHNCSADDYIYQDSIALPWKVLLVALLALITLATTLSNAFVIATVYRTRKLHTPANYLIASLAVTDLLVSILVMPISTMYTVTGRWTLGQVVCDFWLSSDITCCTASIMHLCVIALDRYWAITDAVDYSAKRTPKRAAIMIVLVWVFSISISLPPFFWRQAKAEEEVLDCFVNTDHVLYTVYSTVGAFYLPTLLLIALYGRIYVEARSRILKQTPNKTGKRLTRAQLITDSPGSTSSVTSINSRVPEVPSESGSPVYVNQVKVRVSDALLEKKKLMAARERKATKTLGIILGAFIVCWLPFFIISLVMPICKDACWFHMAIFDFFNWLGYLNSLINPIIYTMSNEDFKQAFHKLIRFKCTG

[18] = biological target: Serine/threonine-protein kinase PAK 3 (Homo sapiens) (UniProt O75914); test: Inhibition of recombinant full length His-tagged human PAK3 expressed in baculovirus expression system at 10 uM in presence of ATP relative to control
Serine/threonine-protein kinase PAK 3 (Homo sapiens), sequence (O75914 whole entry, looked up, the tested form may be a part): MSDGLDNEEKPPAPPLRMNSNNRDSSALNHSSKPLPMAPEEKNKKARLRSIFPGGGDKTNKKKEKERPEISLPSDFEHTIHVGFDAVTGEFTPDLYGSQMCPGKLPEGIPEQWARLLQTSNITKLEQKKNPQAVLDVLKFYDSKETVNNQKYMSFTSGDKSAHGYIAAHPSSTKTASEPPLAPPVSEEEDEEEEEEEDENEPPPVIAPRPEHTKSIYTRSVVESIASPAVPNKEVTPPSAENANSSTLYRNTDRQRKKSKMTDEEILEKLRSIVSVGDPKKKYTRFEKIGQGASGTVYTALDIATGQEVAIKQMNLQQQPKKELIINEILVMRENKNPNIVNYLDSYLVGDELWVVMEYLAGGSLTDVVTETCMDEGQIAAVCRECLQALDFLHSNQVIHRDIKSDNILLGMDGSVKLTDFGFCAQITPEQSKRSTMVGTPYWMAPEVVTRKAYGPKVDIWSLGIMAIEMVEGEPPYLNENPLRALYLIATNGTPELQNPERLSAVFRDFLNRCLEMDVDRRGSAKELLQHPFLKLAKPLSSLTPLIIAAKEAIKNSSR

[19] = biological target: Serine/threonine-protein kinase PAK 4 (Homo sapiens) (UniProt O96013); test: Inhibition of recombinant GST-tagged human PAK4 catalytic domain expressed in baculovirus expression system at 10 uM in presence of ATP relative to control
[20] = biological target: Delta-type opioid receptor (Homo sapiens, UniProt P41143); test: Displacement of [3H]DADLE from human recombinant delta opioid receptor after 60 mins by scintillation counting analysis
Adenosine receptor A2a = Adenosine receptor A2a (Homo sapiens, UniProt P29274); test: Displacement of [3H]-CGS 21680 from human recombinant adenosine A2A receptor after 120 mins by scintillation counting analysis
Adenosine receptor A2a, sequence (P29274 whole entry): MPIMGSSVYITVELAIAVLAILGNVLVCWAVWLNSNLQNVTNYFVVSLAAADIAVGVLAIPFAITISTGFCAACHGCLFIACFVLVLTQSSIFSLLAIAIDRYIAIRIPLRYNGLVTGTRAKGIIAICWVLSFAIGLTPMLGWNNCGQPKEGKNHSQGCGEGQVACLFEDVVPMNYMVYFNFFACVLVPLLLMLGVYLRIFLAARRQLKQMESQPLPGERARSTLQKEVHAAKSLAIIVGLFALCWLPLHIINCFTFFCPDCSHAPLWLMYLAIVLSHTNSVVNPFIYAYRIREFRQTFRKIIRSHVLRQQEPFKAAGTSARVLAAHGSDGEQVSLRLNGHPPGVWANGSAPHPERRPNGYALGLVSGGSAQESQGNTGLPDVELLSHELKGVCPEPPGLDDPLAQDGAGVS

[21] = biological target: Serine/threonine-protein kinase Nek2 (Homo sapiens) (UniProt P51955); test: Inhibition of recombinant full length His-tagged human NEK2 expressed in baculovirus expression system at 10 uM in presence of ATP relative to control
[22] = biological target: Neurotensin receptor type 1 (Homo sapiens, UniProt P30989); test: Displacement of [125I]Tyr3-neurotensin from human recombinant NTS1 receptor at 1 uM after 120 mins by scintillation counting analysis relative to control
Neurotensin receptor type 1, sequence (P30989 whole entry): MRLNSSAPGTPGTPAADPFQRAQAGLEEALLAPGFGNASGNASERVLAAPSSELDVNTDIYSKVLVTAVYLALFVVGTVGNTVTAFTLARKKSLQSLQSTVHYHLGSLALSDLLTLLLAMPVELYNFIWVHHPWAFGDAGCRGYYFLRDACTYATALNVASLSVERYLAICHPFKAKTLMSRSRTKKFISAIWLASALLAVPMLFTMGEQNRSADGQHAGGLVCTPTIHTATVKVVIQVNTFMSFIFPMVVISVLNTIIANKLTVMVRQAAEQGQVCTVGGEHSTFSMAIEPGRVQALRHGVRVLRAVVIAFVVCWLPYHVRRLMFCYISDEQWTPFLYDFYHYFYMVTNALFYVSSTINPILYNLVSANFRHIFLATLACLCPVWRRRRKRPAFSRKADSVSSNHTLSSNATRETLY

D(2) dopamine receptor [23] = biological target: T4, D(2) dopamine receptor; test: Displacement of [3H]7-OH-DPAT from human recombinant dopamine D2S receptor after 60 mins by scintillation counting analysis

T1 sequence (P23975 whole entry): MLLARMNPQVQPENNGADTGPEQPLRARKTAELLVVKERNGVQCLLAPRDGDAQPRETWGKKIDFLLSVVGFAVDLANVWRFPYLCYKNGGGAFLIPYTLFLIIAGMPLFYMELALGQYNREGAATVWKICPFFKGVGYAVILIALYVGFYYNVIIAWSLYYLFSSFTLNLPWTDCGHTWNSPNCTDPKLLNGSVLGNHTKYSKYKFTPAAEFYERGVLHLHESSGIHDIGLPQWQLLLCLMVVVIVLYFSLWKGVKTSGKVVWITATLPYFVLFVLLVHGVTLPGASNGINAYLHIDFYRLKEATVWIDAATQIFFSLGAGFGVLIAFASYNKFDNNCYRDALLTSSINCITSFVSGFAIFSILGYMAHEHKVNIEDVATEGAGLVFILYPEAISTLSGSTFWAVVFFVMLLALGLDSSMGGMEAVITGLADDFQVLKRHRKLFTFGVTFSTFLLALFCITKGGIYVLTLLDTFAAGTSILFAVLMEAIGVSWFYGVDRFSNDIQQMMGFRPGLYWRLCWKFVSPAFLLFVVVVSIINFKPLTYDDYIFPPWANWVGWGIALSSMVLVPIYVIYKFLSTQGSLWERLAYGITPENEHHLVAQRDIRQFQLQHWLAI

## CC(C)(C)NS(=O)(=O)c1ccc(-c2sc(C(=O)N[C@H]3C[C@H](C(=O)O)C3)nc2CC2CCCCC2)c2ccccc12
[1]
  inhibition: < 10%
[2]
  pEC50: 7.09
[3]
  inhibition: < 10%
[4]
  pIC50: 9.62
[5]
  inhibition: < 10%
Adenosine receptor A1
  pIC50: 9.21
Vasopressin V1a receptor
  inhibition: 10%
[6]
  inhibition: 47%
[7]
  inhibition: 0%
[8]
  inhibition: 10%
Homo sapiens
  inhibition: 86%
[9]
  pIC50: 7.29
[10]
  inhibition: < 10%
D(2) dopamine receptor [11]
  inhibition: 19%
[12]
  inhibition: 24%
Rattus norvegicus
  inhibition: < 10%
[13]
  pIC50: 9.03
[14]
  pIC50: 8.47
[15]
  inhibition: 11%
[16]
  inhibition: < 10%
[17]
  pIC50: 7.85
[18]
  inhibition: 5%
[19]
  inhibition: 7%
[20]
  pIC50: 8.22
Adenosine receptor A2a
  pIC50: 8.04
[21]
  inhibition: -6%
[22]
  inhibition: < 10%
D(2) dopamine receptor [23]
  pIC50: 8.74
